Laboratory results reported in US9708359B2, “Pyrrolopyrimidine nucleosides and analogs thereof” (Chimerix, Inc., priority 2015, dated 2017).
“Also recorded” adds a separate entry of the source. Read-outs that look alike come from different tables or passages of the source.

Tests used:
[1] = test system: VZV; experiment: Plaque-reduction assay for VZV; format: cell-based, varicella zoster virus; settings: Human alphaherpesvirus 3, HFF cells
Experimental: Plaque-Reduction Assays for HSV-1, HSV-2, VZV and HCMV:
Monolayers of cells were prepared in six-well plates and incubated at to allow the cells to reach confluency. Media was then aspirated from the wells and of virus was added to each of three wells to yield 20-30 plaques in each well. The virus was allowed to adsorb to the cells for 1 h and the plates were rocked gently every 15 min to redistribute the media. Compounds were diluted in maintenance cell culture media consisting of MEM with Earl's salts supplemented with 2% FBS, L-glutamine, penicillin, and gentamycin. Solutions were added to duplicate wells and the plates were incubated for various times, depending on the virus used. The plaque-reduction assay with HSV-1 strain F was performed in a similar manner but with Vero cells infected one day after plating. For HSV-1 and -2, the monolayers were stained with 1% crystal violet in 20% methanol and the unbound dye removed by washing with dH2O. For assays with HCMV and VZV, the cell monolayer was stained with 1% Neutral Red solution for 4 h then the stain was aspirated and the cells were washed with PBS. For all assays, plaques were enumerated using a stereomicroscope and the concentration of compound that reduced plaque formation by 50% (EC50) was interpolated from the experimental data. […]

[2] = test system: DENV-2; experiment: microbe, parasite or virus in culture; format: cell-based; settings: Dengue virus, DENV2, Vero 76; DENV-2, Vero76 cells
[3] = test system: RSV; experiment: microbe, parasite or virus in culture; format: cell-based; settings: human respiratory syncytial virus, MA104, MA-104 cells
[4] = test system: VEEV; experiment: microbe, parasite or virus in culture; format: cell-based; settings: Venezuelan equine encephalitis virus, Vero 76
[5] = Cytotoxicity in lymphocyte assays, MOLT-3 cells; format: cell-based; settings: human, parallel to HHV-6B assay
Experimental: (§1) Every antiviral assay included a parallel cytotoxicity assay with the same cells used for each virus, the same cell number, the same drug concentrations, and the same incubation times to provide the same drug exposure. To ensure that the cytotoxicity of all compounds could be compared directly, a standard neutral red uptake cytotoxicity assay for all compounds in confluent HFF cells with a 7 d incubation period was performed.
(§2) Cytotoxicity in Lymphocyte Assays:
(§3) Cell viability in all assays with lymphocytes was assessed with a luminescent Cell Viability Assay. Briefly, assay plates were incubated at ambient temperature for 30 min then luminescent reagent was added to each well and the plates were mixed to lyse the cells. Plates were then incubated for at ambient temperature and the luminescence was quantified on a luminometer. Standard methods were used to calculate drug concentrations that inhibited the proliferation of cells by 50% (CC50).
(§4) Cell viability in all assays with lymphocytes was assessed with the CellTiter-Glo Luminescent Cell Viability Assay (Promega). […] Plates were then incubated for an additional 10 min at ambient temperature and the luminescence was quantified on a luminometer. […]

[6] = Cytotoxicity in lymphocyte assays, BCBL-1 cells; format: cell-based; settings: human, parallel to HHV-8 assay
Experimental: as §1, §2, §3, §4

[7] = Parallel cytotoxicity assay in 293TT cells; format: cell-based; settings: human, parallel to JCV assay
Experimental: as §1

[8] = test system: murine norovirus (MNV) CR3; experiment: Study No. 1: efficacy against Murine Norovirus infection in mice; format: in vivo, BALB/c mice; settings: for murine norovirus titer in tissue and feces: 30, 100, 300 mg/kg/day BID oral gavage from day −2, 10^6 PFU, day 3 post-infection
Experimental: Study No. 1 evaluated the efficacy of twice-daily dosing of Compound 1 over a range of 30 mg/kg to 300 mg/kg, initiated prior to infection of mice with 10^6 plaque-forming units (PFU) of murine norovirus (MNV) CR3. A control group of mice treated with vehicle was also included. All doses were started 2 days (39 hours) prior to infection.
Compound was delivered twice daily at indicated doses via oral gavage. A control group of mice treated with vehicle only was also included. Mice were infected with murine norovirus by pipetting virus into mouth 2 days after the first dose. Mice were housed on metal grates and combined fecal output was collected every 24 hours. Tissues (distal ileum and cecum) and individual fecal pellets were harvested on day 3 post inoculation. All samples were titered by plaque assay.
For both studies, compound was delivered via oral gavage at the indicated doses and times prior to infection. Mice were infected with murine norovirus CR3 by pipetting virus into mouth 3 hours after the first day 0 dose of Compound 1 was given. Following infection, compound was administered twice daily through day 3 post-infection.
The mice used were ˜20 gram, 8-12 week old female BALB/c mice in groups of 5. Mice were housed on metal grates and combined fecal output was collected every 24 hours, starting at day −1. Tissues (˜1 cm of distal ileum and cecum) and individual fecal pellets were harvested on day 3 post-infection and weighed. All samples were titered by plaque assay (qRT-PCR as back-up when titers are too low); titers were normalized to gram of tissue or feces. On day 3, duplicate samples of tissue (˜1 cm of distal ileum and cecum) were collected, rinsed in PBS, and snap frozen; serum and a duplicate feces sample were also collected on day 3 and snap frozen; this set of sample was submitted for MS analysis to assess drug bioavailability.

[9] = test system: HFF; settings: HFF cells
[10] = in vitro; settings: dog
[11] = test system: RAW cells; experiment: Conversion of Compound 1 to Triphosphate in RAW Cells
[12] = RAW cells incubated with 0.5 μM Compound 1 for 48 hours
[13] = RAW cells incubated with 1 μM Compound 1 for 48 hours
[14] = RAW cells incubated with 5 μM Compound 1 for 48 hours
[15] = RAW cells incubated with 10 μM Compound 1 for 48 hours

Compound: Cc1nc(N)c2c(C(N)=O)cn([C@@H]3O[C@H](CO)[C@@H](O)[C@H]3O)c2n1 [Compound 1, 4-amino-7-((2R,3R,4S,5R)-3,4-dihydroxy-5-(hydroxymethyl)tetrahydrofuran-2-yl)-2-methyl-7H-pyrrolo[2,3-d]pyrimidine-5-carboxamide]
- EC50 [1]: > 60 µM
- EC50 [2]: > 100 µM
- EC50 [3]: 31 µM
- EC50 [4]: > 100 µM
- CC50 [5]: 44.7 µM
- CC50 [6]: 46.8 µM
- CC50 [7]: > 60 µM
- murine norovirus titer in tissue and feces [8]: effective in reducing the titer of murine norovirus in both tissue and feces
- murine norovirus titer in tissue and feces ([8]; listed as compound 1): reduce the viral load in mice infected with murine norovirus in a dose-dependent manner; also recorded: showed a reduction in PFU/gram with increasing dose
- virus titer in tissue and feces compared with vehicle ([8]; twice-daily 300 mg/kg): significant reduction in virus titer
- CC50 ([9]; parallel to BKV assay): > 60 µM
- CC50 ([9]; parallel to HSV-2 assay): > 60 µM
- CC50 ([9]; parallel to VACV assay): > 60 µM
- CC50 ([9]; parallel to VZV assay): > 60 µM
- CC50 [10]: > 100 µM
- Concentration (ng/1 × 10^6 cells) [11, 12]: 0.17 ng/1 × 10^6 cells
- Concentration (pmol/1 × 10^6 cells) [11, 12]: 0.53 pmol/1 × 10^6 cells
- Concentration (ng/1 × 10^6 cells) [11, 13]: 0.13 ng/1 × 10^6 cells
- Concentration (pmol/1 × 10^6 cells) [11, 13]: 0.40 pmol/1 × 10^6 cells
- Concentration (ng/1 × 10^6 cells) [11, 14]: 0.65 ng/1 × 10^6 cells
- Concentration (pmol/1 × 10^6 cells) [11, 14]: 2.01 pmol/1 × 10^6 cells
- Concentration (ng/1 × 10^6 cells) [11, 15]: 1.02 ng/1 × 10^6 cells
- Concentration (pmol/1 × 10^6 cells) [11, 15]: 3.15 pmol/1 × 10^6 cells
